Assay results: paper PMC4728661, “Cancer Prevention and Health Benefices of Traditionally Consumed Borago officinalis Plants” (Nutrients, 2016)
Marks after values point to notes of the source that are not given here.

Columns and labels:
D. melanogaster [1] = test: Toxicity: survival of Drosophila larvae to emerged adults, simple and combined (H2O2) treatments; format: in vivo, Drosophila melanogaster; conditions: H2O2 0.12 M alone (positive control)
Method: Optimal fertile flies were anesthetized under CO2 narcotisation for cross selection and then placed in new vials for fertilization. After that, hybrid eggs from crossing were collected over an 8 h period and emerged larvae (72 ± 4 h later) were cleaned up for a few seconds in sterile distilled water to remove feeding medium rests. […] Bioactive compound concentrations were chosen on the basis of their known content in B. officinalis species. […] Larvae were fed on these media until pupation (about 48 h). After emergence, resulting adult flies were sacrificed under CO2 narcotisation and stored in a 70% ethanol solution in sterile water. […] The determination of Toxicity (T) of treatments in D. melanogaster was performed following this formula [39]: T = (N° of emerging individuals in treatment/N° of emerging individuals in the negative control) × 100(1) Differences in D. melanogaster survival between treatments at each concentration with respect to negative control were analyzed with a Chi-square test. This procedure was also performed for the analysis of each simple treatment with their correspondent combined treatment.

D. melanogaster [2] = test: Genotoxicity: Somatic Mutation and Recombination Test (SMART), wing spot test, simple treatments; format: in vivo, Drosophila melanogaster; conditions: H2O2 0.12 M alone (positive control); for Diagnosis, Small Single Spots 1–2 Cells m = 2: key: + (positive); − (negative); for Diagnosis, Total Spots m = 2: key: + (positive); − (negative)
Method: The D. melanogaster system was selected for the determination of the safety of B. officinalis consumption as a well-recognized method to analyze vegetable complex mixtures using SMART [31, 32]. This test was used in order to evaluate the genotoxic and antigenotoxic activity of B. officinalis leaves and petioles as well as their selected bioactive compounds [33]. This activity was measured by direct visualization of the occurrence of recessive mutations in the wing hairs of two different D. melanogaster strains. Flies from experiments carried these visible wing genetic markers: the flare (flr) strain flr^3/ln (3LR) TM3, Bd^s and the multiple wing-hair (mwh) strain mwh/mwh. The marker flare (flr^3, 3_38.3) produces individual malformed hairs and the marker multiple wing hairs (mwh, 3_0.3) produces multiple hairs per cell. Larvae used in treatments come from two types of crosses: the standard cross with flr^3/TM3, Bd^S females mated to mwh/mwh males and the reciprocal cross.
Optimal fertile flies were anesthetized under CO2 narcotisation for cross selection and then placed in new vials for fertilization. After that, hybrid eggs from crossing were collected over an 8 h period and emerged larvae (72 ± 4 h later) were cleaned up for a few seconds in sterile distilled water to remove feeding medium rests. For genotoxicity analysis (simple treatments), groups of 100 larvae were transferred into vials containing 0.85 g of Drosophila Instant Medium (Formula 4–24, Carolina Biological Supply, Burlington, NC, USA) wetted with 4 mL of a mixture of distilled water and increasing concentrations of samples: B. officinalis BF and WF (1.25, 2.5, and 5 mg·mL^−1), RO (0.35, 0.7, 1.39 and 2.78 mM), SY (0.16, 0.32, 0.63 and 1.26 mM), SI (0.15, 0.29, 0.58 and 1.16 mM) and the mixture of these three bioactive compounds at each concentration assayed individually. Bioactive compound concentrations were chosen on the basis of their known content in B. officinalis species. […] Larvae were fed on these media until pupation (about 48 h). After emergence, resulting adult flies were sacrificed under CO2 narcotisation and stored in a 70% ethanol solution in sterile water. Emerged adults were counted for toxicity evaluation and transheterozygous wings (mwh flr^+/mwh^+ flr^3) were mounted on microscope slides and wing hair mutations (spots) scored, using a photonic microscope (Nikon) at 400× magnification for genotoxicity and antigenotoxicity evaluation.
For the evaluation of genotoxic effects, the frequencies of spots per fly of each treated series were compared to the concurrent negative control for each class of mutational clone as well as between simple and combined treatments for the same concentration comparisons. […] A multiple-decision procedure was used to categorize results as positive, inconclusive or negative. Inconclusive and positive results were evaluated by the non-parametric U test of Mann, Whitney and Wilcoxon. The inhibition percentage (IP) of genotoxicity was calculated from the total frequencies of spots per wing, following this formula [42]: IP = (genotoxin alone − sample + genotoxin) × 100/(genotoxin alone)(2)

With OO [H2O2, hydrogen peroxide, reference compound] the Survival (D. melanogaster [1]) was 37.87 * %, the “Diagnosis, Small Single Spots 1–2 Cells m = 2” value (D. melanogaster [2]) was “+” and the “Diagnosis, Total Spots m = 2” value (D. melanogaster [2]) was “+”. The “Mutation rate, Large Single Spots >2 Cells m = 5” value (D. melanogaster [2]) was 0.07 (11) spots/wing, the “Mutation rate, Small Single Spots 1–2 Cells m = 2” value (D. melanogaster [2]) was 0.60 (94) spots/wing and the “Mutation rate, Total Spots m = 2” value (D. melanogaster [2]) was 0.65 (109) spots/wing. For the same compound, the “Mutation rate, Twin Spots m = 5” value (D. melanogaster [2]) was 0.06 (4) spots/wing.
